Test results: patent US8633242B2, “Benzylidene indanones and processes for preparation and use thereof” (Council of Scientific and Industrial Research, priority 2011, dated 2014)
Entries after “also recorded” stand apart in the source; their conditions may differ.

Columns and labels:
PC-3 (prostate) = assay: Sulphorhodamine B cytotoxicity assay, PC-3; format: cell-based, human; set-up: key to Human cancer cell lines IC50, PC-3 (prostate): Inactive: inactive, if IC50 > 100 μM; conditions: SRB assay, 48 hours incubation
Description: (§1) The benzylidene analogues were evaluated by Sulphorhodamine B Assay as per reported method [Skehan et al., J. Natl. Cancer Inst. 1990, 82, 1107]. The human cancer cell lines procured from National Cancer institute, Frederick, U.S.A. were used in present study. Cells were grown in tissue culture flasks in complete growth medium (RPMI-1640 medium with 2 mM glutamine, pH 7.4 supplemented with 10% fetal bovine serum, 100 μg/ml streptomycin and 100 units/ml penicillin) in a carbon dioxide incubator (37° C., 5% CO2, 90% RH). The cells at subconfluent stage were harvested from the flask by treatment with trypsin (0.05% in PBS (pH 7.4) containing 0.02% EDTA). Cells with viability of more than 98%, as determined by trypan blue exclusion, were used for determination of cytotoxicity. The cell suspension required concentration of cells was prepared in complete growth medium. Stock solution of 2×10^−2 M of compounds were prepared in DMSO and further dilution was carried out complete growth medium containing 50 μg/ml of gentamycin to obtained working test solution of required concentration. In vitro cytotoxicity against various human cancer cell lines was determined using 96-well cell culture plates. The 100 μl of cell suspension was added to each well of the 96-well cell culture plates. The cells were allowed to grow in CO2 incubator (37° C., 5% CO2, 90% RH) for 24 hours. The test materials in complete growth medium (100 μl) were added after 24 hours incubation to the wells containing cell suspension. The plates were further incubated for 48 hours (37° C. in an atmosphere of 5% CO2 and 90% relative humidity) in a carbon dioxide incubator after addition of test material and then the cell growth was stopped by gently layering trichloroacetic acid (50% TCA, 50 μl) on top of the medium in all the wells. The plates were incubated at 4° C. for one hour to fix the cells attached to the bottom of the wells. The liquid of all the wells was gently pipetted out and discarded. The plates were washed five times with distilled water to remove TCA, growth medium low molecular weight metabolites, serum proteins etc. and air-dried. Cell growth was measured by staining with sulforhodamine B dye. The adsorbed dye was dissolved in Tris-HCl Buffer (100 μl/well, 0.01M, pH 10.4) and plates were gently stirred for 10 minutes on a mechanical stirrer. The optical density (OD) was recorded on ELISA reader at 540 nm. 5-Fluorouracil, Paclitaxel (Taxol), Mitomycin-c and Adriamycin were used as positive controls.

HCT (Colon) = assay: Sulphorhodamine B cytotoxicity assay, HCT; format: cell-based, human
Description: as §1

[1] = tested on: various human cancer cell lines; assay: Cytotoxicity against various human cancer cell lines (summary statements); format: cell-based
Description: The benzylidene analogues were evaluated by Sulphorhodamine B Assay as per reported method [Skehan et al., J. Natl. Cancer Inst. 1990, 82, 1107]. The human cancer cell lines procured from National Cancer institute, Frederick, U.S.A. were used in present study. Cells were grown in tissue culture flasks in complete growth medium (RPMI-1640 medium with 2 mM glutamine, pH 7.4 supplemented with 10% fetal bovine serum, 100 μg/ml streptomycin and 100 units/ml penicillin) in a carbon dioxide incubator (37° C., 5% CO2, 90% RH). The cells at subconfluent stage were harvested from the flask by treatment with trypsin (0.05% in PBS (pH 7.4) containing 0.02% EDTA). Cells with viability of more than 98%, as determined by trypan blue exclusion, were used for determination of cytotoxicity. The cell suspension required concentration of cells was prepared in complete growth medium. Stock solution of 2×10^−2 M of compounds were prepared in DMSO and further dilution was carried out complete growth medium containing 50 μg/ml of gentamycin to obtained working test solution of required concentration. In vitro cytotoxicity against various human cancer cell lines was determined using 96-well cell culture plates. […] Cell growth was measured by staining with sulforhodamine B dye. […] The optical density (OD) was recorded on ELISA reader at 540 nm. […]

THP-1 (Leukemia) = assay: Sulphorhodamine B cytotoxicity assay, THP-1; format: cell-based, human
Description: as §1

A549 (Lung) = assay: Sulphorhodamine B cytotoxicity assay, A549; format: cell-based, human; conditions: Homo sapiens, A549; SRB assay, 48 hours incubation; read-out: Human cancer cell lines IC50, A549 (Lung)
Description: as §1

tubulin protein = assay: In-vitro tubulin polymerisation inhibition assay; format: biochemical
Description: The tubulin polymerization experiment was performed using ‘assay kit’ (Cytoskeleton USA) following manufacturer's protocol based on the procedure described by of Shelanski et al. (1973) and Lee et al. (1977). Briefly, tubulin protein (3 mg/mL) in tubulin polymerization buffer (80 mM PIPES, pH 6.9, 2 mM MgCl2, 0.5 mM EGTA, 1 mM GTP and 15% glycerol) was placed in pre-warmed 96-well microtiter plates at 37° C. in the presence of test compounds with variable concentrations. All samples were mixed well and polymerization was monitored kinetically at 340 nm every min for 1 h using a Spectramax plate reader. Podophyllotoxin and etoposide were used as positive controls and DMSO as negative control. The IC50 value was determined from dose-dependent analysis and is defined as the concentration that inhibits the rate of polymerization by 50%.
Podophyllotoxin and etoposide, standard tubulin polymerisation inhibitors were used as positive controls.

HeLa (Cervix) = assay: Sulphorhodamine B cytotoxicity assay, HeLa; format: cell-based, human; conditions: Homo sapiens, HeLa; SRB assay, 48 hours incubation; read-out: Human cancer cell lines IC50, HeLa (Cervix)
Description: as §1

MCF-7 (Breast cancer) = assay: Sulphorhodamine B cytotoxicity assay, MCF-7; format: cell-based, human
Description: as §1

DU-145 (prostate) = assay: Sulphorhodamine B cytotoxicity assay, DU-145; format: cell-based, human; set-up: key to Human cancer cell lines IC50, DU-145 (prostate): Inactive: inactive, if IC50 > 100 μM; conditions: SRB assay, 48 hours incubation
Description: as §1

## COc1cc(C2/C(=C/c3ccc4c(c3)OCO4)C(=O)c3cc(OC)c(OC)c(OC)c32)cc(OC)c1OC (racemic) [Compound 8, 2-(3,4-Methylenedioxybenzylidine), 3-(3,4,5-trimethoxyphenyl), 4,5,6-trimethoxyindanone]
PC-3 (prostate)
  Human cancer cell lines IC50, PC-3 (prostate): Inactive
HCT (Colon)
  activity against HCT (Colon) cancer cell line, in words: better activity
HCT (Colon); Homo sapiens, SRB assay, 48 hours incubation, read-out: Human cancer cell lines IC50, HCT (Colon)
  IC50: 100 nM
[1]
  anticancer activity against human cancer cell lines, in words: exhibits anticancer activity
THP-1 (Leukemia)
  activity against leukemia cell lines (THP), in words: potent activity
THP-1 (Leukemia); Homo sapiens, THP-1, SRB assay, 48 hours incubation, read-out: Human cancer cell lines IC50, THP-1 (Leukemia)
  IC50: 4900 nM
A549 (Lung)
  IC50: 11000 nM
Tubulin protein
  inhibition of tubulin polymerisation, in words: tubulin polymerisation inhibition; also recorded: strong inhibition
Tubulin protein; read-out: Tubulin polymerisation inhibition IC50, tubulin 3 mg/mL, 37° C., 340 nm, 1 h
  IC50: 630 nM
HeLa (Cervix)
  IC50: 23000 nM
MCF-7 (Breast cancer)
  anticancer activity against human breast cancer cells (MCF-7), in words: better activity; also recorded: potent anticancer activity
MCF-7 (Breast cancer); Homo sapiens, MCF7, SRB assay, 48 hours incubation, read-out: Human cancer cell lines IC50, MCF-7 (Breast cancer)
  IC50: 10 nM
DU-145 (prostate)
  Human cancer cell lines IC50, DU-145 (prostate): Inactive
